According to patent US7312237B2, “Combination of epothilone analogs and chemotherapeutic agents for the treatment of prolilferative diseases” (Bristol-Myers Squibb Co., priority 2001, dated 2007):

Experiments:
[1] = tested on: tubulin isolated from calf brain; experiment: Tubulin polymerization assay; type: biochemical
HCT-116 = experiment: In vitro cytotoxicity (MTS assay), HCT-116; type: cell-based; conditions: Homo sapiens; HCT-116, 72 hour incubation
Description: HCT116 human carcinoma cell lines and HCT116/VM46 cells, a MDR variant, were maintained in McCoy's 5A medium (GIBCO) and 10% heat inactivated fetal bovine serum (GIBCO). A2780 human ovarian carcinoma cells and A2780Tax cells obtained from Dr. Antonio Fojo (NCI, Bethesda, Md.) were maintained in IMEM (GIBCO) and 10% fetal bovine serum (GIBCO).
(§1) The in vitro cytotoxicity was assessed in tumor cells by a tetrazolium-based colorimetric assay which takes advantage of the metabolic conversion of MTS (3-(4,5-dimethylthiazol-2-yl)-5-(3-carboxymethoxyphenyl)-2-(4-sulphenyl)-2H-tetrazolium, inner salt) to a reduced form that absorbs light at 492 nm. Cells were seeded 24 hr prior to drug addition. Following a 72 hour incubation at 37° C. with serially diluted compound, MTS, in combination with the electron coupling agent phenazine methosulfate, was added to the cells. The incubation was continued for 3 hours, then the absorbancy of the medium at 492 nm was measured with a spectrophotometer to obtain the number of surviving cells relative to control populations. The results are expressed as median cytotoxic concentrations (IC50 values).

[2] = tested on: A2780Tax human ovarian carcinoma; conditions: Expt. 12, IV paclitaxel at its MTD
Source text: (§2) The following human tumors were used: A2780 ovarian, A2780Tax ovarian (established from cells obtained from Dr. Antonio Fojo, Medicine Branch, NCI, Bethesda, Md.), HCT116/VM46 colon, Pat-7 ovarian (established from a tumor biopsy provided by Dr. Thomas Hamilton, Fox Chase Cancer Center, Philadelphia, Pa.) from a patient who had developed resistance to TAXOL®). The murine fibrosarcoma M5076 was also employed.
The following tumors were passaged in the indicated host strain of mouse: murine M5076 fibrosarcoma (M5076) in C57Bl/6 mice; human A2780 and Pat-7 ovarian carcinomas, HCT116, HCT116/VM46 and LS174T colon carcinoma, Pat-21 breast carcinoma in nude mice. Tumor passage occurred biweekly for murine tumors and approximately every two to eight weeks for the various human tumor lines. With regard to efficacy testing, M5076 tumors were implanted in (C57Bl/6×DBA/2)F1 hybrid mice, and human tumors were implanted in nude mice. All tumor implants for efficacy testing were subcutaneous (sc). […]
(§3) Antitumor activity was evaluated at the maximum tolerated dose (MTD) which is defined as the dose level immediately […] which excessive toxicity (i.e. more than one death) occurred. […] When death occurs, the day of death was recorded. […]
(§4) To estimate tumor cell kill, the tumor volume doubling time was first calculated with the formula: […]

MIP = experiment: In vitro cytotoxicity (MTS assay), MIP; type: cell-based; conditions: MIP (MDR colon tumor line), 72 hour incubation; read-out: IC50
Description: as §1

[3] = tested on: Pat-7 human ovarian carcinoma; experiment: In vivo antitumor testing, Pat-7 in nude mice
Description: (§5) All tumor implants for efficacy testing were subcutaneous (sc).
(§6) The MTD was frequently equivalent to OD. When death occurs, the day of death was recorded.
(§7) And, Log cell kill=T−C÷(3.32×TVDT)
This tumor model was established from a tumor biopsy of an ovarian cancer patient (Pat-7), who was initially responsive to TAXOL® treatment but ultimately developed resistance to it following nine courses of monotherapy with TAXOL®. Prior to treatment with TAXOL®, Pat-7 also received numerous other chemotherapeutic agents including carboplatin, cytoxan, VP-16, ifosfamide and altretamine. Tumor biopsy was taken following development of TAXOL® resistance.

[4] = tested on: A2780 human ovarian carcinoma; experiment: In vivo antitumor testing, A2780 in nude mice
Description: as §5, §6, §7

[5] = tested on: HCT116/VM46 human colon carcinoma; experiment: in vivo
Source text: as §2
(§8) The following tumors were passaged in the indicated host strain of mouse: murine M5076 fibrosarcoma (M5076) in C57Bl/6 mice; human A2780 and Pat-7 ovarian carcinomas, HCT116, HCT116/VM46 and LS174T colon carcinoma, Pat-21 breast carcinoma in nude mice. Tumor passage occurred biweekly for murine tumors and approximately every two to eight weeks for the various human tumor lines. With regard to efficacy testing, M5076 tumors were implanted in (C57Bl/6×DBA/2)F1 hybrid mice, and human tumors were implanted in nude mice. All tumor implants for efficacy testing were subcutaneous (sc).
(§9) The required number of animals needed to detect a meaningful response were pooled at the start of the experiment and each was given a subcutaneous implant of a tumor fragment (·50 mg) with a 13-gauge trocar. For treatment of early-stage tumors, the animals were again pooled before distribution to the various treatment and control groups. For treatment of animals with advanced-stage disease, tumors were allowed to grow to the predetermined size window (tumors outside the range were excluded) and animals were evenly distributed to various treatment and control groups. Treatment of each animal was based on individual body weight. Treated animals were checked daily for treatment related toxicity/mortality. Each group of animals was weighed before the initiation of treatment (Wt1) and then again following the last treatment dose (Wt2). The difference in body weight (Wt2−Wt1) provides a measure of treatment-related toxicity.
(§10) Tumor weights (mg) were estimated from the formula: Tumor weight=(length×width^2)÷2
Antitumor activity was evaluated at the maximum tolerated dose (MTD) which is defined as the dose level immediately […] which excessive toxicity (i.e. more than one death) occurred. […] When death occurs, the day of death was recorded.
Tumor response end-point was expressed in terms of tumor growth delay (T-C value), defined as the difference in time (days) required for the treated tumors (T) to reach a predetermined target size compared to those of the control group (C).
To estimate tumor cell kill, the tumor volume doubling time was first calculated with the formula:
TVDT=Median time (days) for control tumors to reach target size−Median time (days) for control tumors to reach half the target size
HCT116/VM46 is an MDR-resistant colon carcinoma developed from the sensitive HCT116 parent line.

Pat-21 breast carcinoma = tested on: Pat-21 breast carcinoma
Source text: as §8, §9, §10, §3, §4

[6] = tested on: A2780 human ovarian carcinoma; experiment: In vivo antitumor testing, A2780 in nude rats; conditions: nude rats, IV paclitaxel
Description: as §6, §7
A2780 grown in nude rats was also utilized.

[7] = tested on: M5076 murine fibrosarcoma; experiment: In vivo antitumor testing, M5076 murine sarcoma; parameters: species or system mice; conditions: optimal schedule
Description: The murine fibrosarcoma M5076 was also employed.
The human tumors were maintained in Balb/c nu/nu nude mice. M5076 was maintained in C57BL/6 mice. Tumors were propagated as subcutaneous transplants in the appropriate mouse strain using tumor fragments obtained from donor mice.
as §5, §6, §7

[8] = tested on: LS174T human colon carcinoma; experiment: In vivo antitumor testing, LS174T xenograft; parameters: species or system nude mice; conditions: Expt. R578, iv paclitaxel 36 mg/kg/inj every 2 days for 5 doses
Description: as §5, §6, §7

[9] = tested on: Pat-7 human ovarian carcinoma; experiment: In vivo antitumor testing, Pat-7 in nude rats; conditions: Expt. 15, nude rats, paclitaxel at optimal dose
Description: as §6, §7

## C/C(=C\c1csc(C)n1)[C@@H]1C[C@@H]2O[C@@H]2CCC[C@H](C)[C@H](O)[C@@H](C)C(=O)C(C)(C)[C@@H](O)CC(=O)O1 [Epothilone A]
[1]
  Ratio of Polymerization Potency of Analog/Paclitaxel: 0.4

## CC(=O)O[C@H]1C(=O)[C@@]2(C)[C@H]([C@H](OC(=O)c3ccccc3)[C@]3(O)C[C@H](OC(=O)[C@H](O)[C@@H](NC(=O)c4ccccc4)c4ccccc4)C(C)=C1C3(C)C)[C@]1(OC(C)=O)CO[C@@H]1C[C@@H]2O [Paclitaxel, reference compound]
HCT-116
  IC50: 2.1 nM
[2]
  Paclitaxel LCK: 0.8
MIP
  IC50: > 112 nM
[3]; Expt. 8, IV paclitaxel at optimal dose (24-36 mg/kg/inj) and schedule
  Paclitaxel LCK: 1.3
[3]; Expt. 9, IV paclitaxel at optimal dose (24-36 mg/kg) and schedule
  Paclitaxel (IV) LCK: 1.2
[3]; Expt. R403, IV paclitaxel at optimal dose (24-36 mg/kg/inj) and schedule
  Paclitaxel LCK: 0.6
[4]; Expt. 89, IV paclitaxel at optimal dose
  Paclitaxel LCK: 2
[4]; Expt. 92, IV paclitaxel at optimal dose
  Paclitaxel LCK: 3.5
[5]; Expt. 32, IV paclitaxel at its MTD
  Paclitaxel LCK: 0.4
[5]; Expt. 33, IV paclitaxel at its MTD
  Paclitaxel LCK: 0.7
[5]; paclitaxel at its MTD
  median LCK of 12 consecutive studies: 0.35 LCK
Pat-21 breast carcinoma; Expt. R667, paclitaxel at MTD of 36 mg/kg/inj
  Paclitaxel LCK: 0.3
Pat-21 breast carcinoma; paclitaxel, two courses of 3 doses every 4 days
  MTD: 36 mg/kg/inj
[6]
  cures: 5 of 7
[7]; Expt. 159, IV paclitaxel
  Paclitaxel LCK: 0.1
[7]; Expt. 162, IV paclitaxel
  Paclitaxel LCK: 0.5
[8]
  Paclitaxel LCK: 2.0
[9]
  Paclitaxel LCK: 2.2
[9]; listed as PACLITAXEL
  Paclitaxel cures/total: (0/6)
[9]; listed as paclitaxel
  Paclitaxel cures/total: no cures

## C/C(=C\c1csc(C)n1)[C@@H]1C[C@@H]2O[C@]2(C)CCC[C@H](C)[C@H](O)[C@@H](C)C(=O)C(C)(C)[C@@H](O)CC(=O)O1 [Epothilone B]
[1]
  Ratio of Polymerization Potency of Analog/Paclitaxel: 0.3
